Source: patent US7786287B2, “Hepatitis C virus assay systems” (priority 2002, dated 2010)

Molecular target: T1, beta-lactamase (Escherichia coli, UniProt P62593, A182V/V82I)
T1 construct: HCV core N-terminal partial region (first 12 codons, about 36 nucleotides of core), then a 3-residue linker (Gly-Arg-Ala) and an added Met before His24 of the enzyme; expressed in transfected cells; host or cells: replicon-enhanced Huh-7 cells transfected with HCV replicon RNA encoding beta-lactamase
Assay: HCV replicon beta-lactamase assay: signal-to-background with clavulanic acid
Format: cell-based
Conditions: for Δ: 1.23 at 0.00 μM, Δ not defined; for S/B: 3.5 at 0.00 μM
Protocol: Clavulanic acid can be used to enhance the signal-to-background ratio from the beta-lactamase reporter system wherein, a larger signal to noise ratio facilitates detection of HCV replication inhibitors by better reflecting changes in the intracellular concentration of beta-lactamase.
Prior to use, frozen cells are thawed fresh in the morning of the assay or the day before and diluted in pre-warmed media to 40,000 cells/ml. Cell suspension (50 μl) is plated into 384-well micro-titer plates. The cells are allowed to recover for at least 6 hours at 37° C. in the plates before beginning an assay. 1 μl of 25 μM clavulanic acid in PBS and 0.25 μl of 500 μM test compounds in DMSO are added to the cells. The assay cell plates are then incubated for 24 hours at 37° C. To the assay plate, 10 μl of 6×CCF4/AM substrate in loading buffer is added with a Multidrop (Labsystems), and the plate incubated for 90 minutes at ambient temperature. The plate is then read from the bottom on a Teacn Spectrafluor Plus (340 nm excitation, 460 nm and 530 nm emissions).
In the example described below, clavulanic acid is present throughout the assay at a concentration that slightly reduces beta-lactamase activity instead of using it at high concentration that would complete inhibit beta-lactamase activity.
Table 2 provides results obtained using different concentrations of clavulanic acid and an HCV NS5B inhibitor.

SMILES: O=C(O)[C@H]1/C(=C/CO)O[C@@H]2CC(=O)N21 [clavulanic acid]
- Δ ([CA] 0.13 μM): 1.22
- S/B ([CA] 0.13 μM): 5.7
- Δ ([CA] 0.25 μM): 1.17
- S/B ([CA] 0.25 μM): 6.0
- Δ ([CA] 0.50 μM): 0.97
- S/B ([CA] 0.50 μM): 6.3
- Δ ([CA] 1.00 μM): 0.81
- S/B ([CA] 1.00 μM): 5.4
